Assay [1] addresses EED (1-441)-His protein (Homo sapiens (Human), UniProt O75530). The assay can be described thus: EED-H3K27Me3 peptide competition binding assay by AlphaScreen. The settings on record: read-out: (a) IC50 EED Alphascreen binding Qualified. The source says: EED-H3K27Me3 peptide competition binding assay by AlphaScreen (α-screen)
A general note: In Alpha technology, singlet oxygen from a donor bead excites a nearby acceptor bead.

Assay [2] deals with wild type PRC2 (wtPRC2) complex (Homo sapiens (Human), UniProt O75530). The assay can be described thus: EED LC-MS assay. The format is biochemical. As to conditions: read-out: (b) IC50 EED LC-MS Qualified. The method, then: A 6 μL solution of 3 μM of the peptide substrate H3K27Me0 (histone H3[21-44]-biotin) in reaction buffer was added to initiate each reaction. […] ELISA (H3K27 Methylation) Assay
Chain of wild type PRC2 (wtPRC2) complex (O75530 whole entry): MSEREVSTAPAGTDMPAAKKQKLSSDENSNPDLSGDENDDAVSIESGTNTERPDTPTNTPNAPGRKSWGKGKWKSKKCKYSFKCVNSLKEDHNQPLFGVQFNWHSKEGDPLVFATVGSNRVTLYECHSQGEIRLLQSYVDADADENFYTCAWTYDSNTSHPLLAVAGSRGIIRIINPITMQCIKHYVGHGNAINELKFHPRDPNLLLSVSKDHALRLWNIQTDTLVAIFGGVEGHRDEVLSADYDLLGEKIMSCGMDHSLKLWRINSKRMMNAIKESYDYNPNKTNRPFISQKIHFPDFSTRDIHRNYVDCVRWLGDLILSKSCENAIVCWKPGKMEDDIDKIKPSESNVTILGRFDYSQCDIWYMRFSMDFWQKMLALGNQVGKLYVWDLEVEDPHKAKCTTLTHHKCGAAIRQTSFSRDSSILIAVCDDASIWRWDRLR
Chain of wild type PRC2 (wtPRC2) complex (Q15910 whole entry partner): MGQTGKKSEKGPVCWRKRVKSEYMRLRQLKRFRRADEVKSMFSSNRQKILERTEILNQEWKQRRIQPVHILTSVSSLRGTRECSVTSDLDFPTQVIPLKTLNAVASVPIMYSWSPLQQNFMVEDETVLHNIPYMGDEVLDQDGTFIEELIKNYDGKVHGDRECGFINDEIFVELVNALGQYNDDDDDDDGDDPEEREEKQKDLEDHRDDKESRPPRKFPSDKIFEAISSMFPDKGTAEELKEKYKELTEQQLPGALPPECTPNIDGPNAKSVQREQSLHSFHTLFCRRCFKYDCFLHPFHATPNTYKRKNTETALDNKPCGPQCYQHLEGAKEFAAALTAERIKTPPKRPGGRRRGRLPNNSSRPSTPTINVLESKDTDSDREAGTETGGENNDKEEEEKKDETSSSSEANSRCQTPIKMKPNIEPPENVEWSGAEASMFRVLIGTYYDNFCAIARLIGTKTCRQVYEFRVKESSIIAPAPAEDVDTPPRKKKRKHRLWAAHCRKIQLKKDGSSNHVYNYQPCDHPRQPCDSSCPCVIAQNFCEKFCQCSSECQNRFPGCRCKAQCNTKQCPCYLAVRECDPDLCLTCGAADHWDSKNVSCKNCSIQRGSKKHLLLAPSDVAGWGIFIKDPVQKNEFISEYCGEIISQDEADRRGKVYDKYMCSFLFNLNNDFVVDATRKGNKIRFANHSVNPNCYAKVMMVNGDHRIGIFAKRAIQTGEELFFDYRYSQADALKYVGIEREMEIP
Chain of wild type PRC2 (wtPRC2) complex (Q15022 whole entry partner): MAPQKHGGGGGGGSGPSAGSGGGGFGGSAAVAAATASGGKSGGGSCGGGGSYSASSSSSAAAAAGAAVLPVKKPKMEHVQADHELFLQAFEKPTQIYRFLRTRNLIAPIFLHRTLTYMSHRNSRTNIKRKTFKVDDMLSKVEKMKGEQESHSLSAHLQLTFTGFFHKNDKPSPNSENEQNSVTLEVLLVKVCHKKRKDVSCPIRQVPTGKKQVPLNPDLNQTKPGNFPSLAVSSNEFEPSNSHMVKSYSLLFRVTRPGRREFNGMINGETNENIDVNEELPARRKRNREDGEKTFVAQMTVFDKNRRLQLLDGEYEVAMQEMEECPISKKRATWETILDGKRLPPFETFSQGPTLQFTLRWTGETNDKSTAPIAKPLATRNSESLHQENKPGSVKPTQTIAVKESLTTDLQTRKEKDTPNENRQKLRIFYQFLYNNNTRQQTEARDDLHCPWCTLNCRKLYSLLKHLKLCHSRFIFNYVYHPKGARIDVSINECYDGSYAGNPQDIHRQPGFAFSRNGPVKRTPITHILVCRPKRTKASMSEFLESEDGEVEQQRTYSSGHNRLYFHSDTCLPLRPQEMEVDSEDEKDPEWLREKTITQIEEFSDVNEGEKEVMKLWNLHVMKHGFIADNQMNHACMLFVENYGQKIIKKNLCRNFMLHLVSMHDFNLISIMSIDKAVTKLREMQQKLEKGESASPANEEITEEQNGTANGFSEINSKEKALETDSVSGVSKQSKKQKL

What is called IC50 is the concentration needed to halve the response being measured.

Chain of EED (1-441)-His protein (O75530 whole entry): as the sequence (O75530 whole entry) above

Turning to `Fc1ccccc1-c1cnc(NCc2cccc3c2CCO3)n2cnnc12` [Example 31, N-((2,3-dihydrobenzofuran-4-yl)methyl)-8-(2-fluorophenyl)-[1,2,4]triazolo[4,3-c]pyrimidin-5-amine], the IC50 in assay [1] is 30.2 nM; in assay [2], 21.5 nM.
For `Clc1ccccc1-c1cnc(NCc2cccc3c2CCO3)n2cnnc12` [Example 32, 8-(2-chlorophenyl)-N-((2,3-dihydrobenzofuran-4-yl)methyl)-[1,2,4]triazolo[4,3-c]pyrimidin-5-amine], the IC50 came to 43.4 nM in assay [1] and 22.9 nM in assay [2].
In the case of `CS(=O)(=O)Nc1ccc(-c2cnc(NCc3cccc4c3CCO4)n3cnnc23)cc1F` [Example 33, N-(4-(5-(((2,3-dihydrobenzofuran-4-yl)methyl)amino)-[1,2,4]triazolo[4,3-c]pyrimidin-8-yl)-2-fluorophenyl)methanesulfonamide], the IC50 in assay [1] amounted to 28.5 nM; in assay [2], 17.5 nM.
As to `OCCn1cc(-c2cnc(NCc3cccc4c3CCO4)n3cnnc23)cn1` [Example 34, 2-(4-(5-(((2,3-dihydrobenzofuran-4-yl)methyl)amino)-[1,2,4]triazolo[4,3-c]pyrimidin-8-yl)-1H-pyrazol-1-yl)ethanol], the figures for the IC50 in assay [1] and in assay [2] were 37.5 nM and 49.4 nM, respectively.
On the same counts, the results for `CN(C)CCc1ccc(-c2cnc(NCc3cccc4c3CCO4)n3cnnc23)cc1` [Example 35, N-((2,3-dihydrobenzofuran-4-yl)methyl)-8-(4-(2-(dimethylamino)ethyl)phenyl)-[1,2,4]triazolo[4,3-c]pyrimidin-5-amine] are 8.3 nM and 15.3 nM.
`Cc1cc(-c2cnc(NCc3cccc4c3CCO4)n3cnnc23)cnc1N1CCN(C)CC1` [Example 36, N-((2,3-dihydrobenzofuran-4-yl)methyl)-8-(5-methyl-6-(4-methylpiperazin-1-yl)pyridin-3-yl)-[1,2,4]triazolo[4,3-c]pyrimidin-5-amine]: the half-maximal inhibitory concentration (IC50) in assay [1] was 18.5 nM; in assay [2] it was 22.4 nM.
As for `CS(=O)(=O)c1ccc(-c2cnc(NCc3c(F)ccc4c3CCO4)n3cnnc23)cc1` [Example 37, N-((5-fluoro-2,3-dihydrobenzofuran-4-yl)methyl)-8-(4-(methylsulfonyl)phenyl)-[1,2,4]triazolo[4,3-c]pyrimidin-5-amine], the results for the IC50 in assay [1] and in assay [2] were 12.3 nM and 20.7 nM, respectively.
Consider `OCCOc1ccc(-c2cnc(NCc3cccc4c3CCO4)n3cnnc23)cc1` [Example 38, 2-(4-(5-(((2,3-dihydrobenzofuran-4-yl)methyl)amino)-[1,2,4]triazolo[4,3-c]pyrimidin-8-yl)phenoxy)ethanol], for which the IC50 in assay [1] turned out to be 24.2 nM; in assay [2] it was 34.9 nM.
For the compound `CS(=O)(=O)Nc1ccc(-c2cnc(NCc3c(F)ccc4c3CCO4)n3cnnc23)cc1F` [Example 39, N-(2-fluoro-4-(5-(((5-fluoro-2,3-dihydrobenzofuran-4-yl)methyl)amino)-[1,2,4]triazolo[4,3-c]pyrimidin-8-yl)phenyl)methanesulfonamide], the IC50 is 17.8 nM in assay [1] and 17.5 nM in assay [2].
On to `O=S(=O)(NCCO)c1ccc(-c2cnc(NCc3cccc4c3CCO4)n3cnnc23)cc1` [Example 40, 4-(5-(((2,3-dihydrobenzofuran-4-yl)methyl)amino)-[1,2,4]triazolo[4,3-c]pyrimidin-8-yl)-N-(2-hydroxyethyl)benzenesulfonamide], for which the IC50 in assay [1] amounted to 56.2 nM; in assay [2] it was 56.6 nM.
In the case of `O=C(c1ccc(-c2cnc(NCc3cccc4c3CCO4)n3cnnc23)cc1)N1CCNCC1` [Example 41, (4-(5-(((2,3-dihydrobenzofuran-4-yl)methyl)amino)-[1,2,4]triazolo[4,3-c]pyrimidin-8-yl)phenyl)(piperazin-1-yl)methanone], the results for the IC50 in assay [1] and in assay [2] were 13.2 nM and 9.7 nM, respectively.
On the same counts, the results for `CN(C)C(=O)c1ccc(-c2cnc(NCc3cccc4c3CCO4)n3cnnc23)cc1` [Example 42, 4-(5-(((2,3-dihydrobenzofuran-4-yl)methyl)amino)-[1,2,4]triazolo[4,3-c]pyrimidin-8-yl)-N,N-dimethylbenzamide] are 52.5 nM and 86.1 nM.
For `CN(C)C(=O)c1cccc(-c2cnc(NCc3cccc4c3CCO4)n3cnnc23)c1` [Example 43, 3-(5-(((2,3-dihydrobenzofuran-4-yl)methyl)amino)-[1,2,4]triazolo[4,3-c]pyrimidin-8-yl)-N,N-dimethylbenzamide], the IC50 in assay [1] is 30.9 nM; in assay [2], 33.1 nM.
With `Fc1ccc2c(c1CNc1ncc(-c3cccnc3)c3nncn13)CCO2` [Example 44, N-((5-fluoro-2,3-dihydrobenzofuran-4-yl)methyl)-8-(pyridin-3-yl)-[1,2,4]triazolo[4,3-c]pyrimidin-5-amine], the IC50 in assay [1] was determined as 12.8 nM; in assay [2] it was 19.2 nM.
As for `Fc1ccc2c(c1CNc1ncc(-c3ccncc3)c3nncn13)CCO2` [Example 45, N-((5-fluoro-2,3-dihydrobenzofuran-4-yl)methyl)-8-(pyridin-4-yl)-[1,2,4]triazolo[4,3-c]pyrimidin-5-amine], the 50% inhibitory concentration (IC50) worked out at 20 nM in assay [1] and 32.8 nM in assay [2].
On the same counts, the results for `CC(c1ccc(-c2cnc(NCc3c(F)ccc4c3CCO4)n3cnnc23)cc1)N1CCCC1` (stereo not shown) [Example 46, N-((5-fluoro-2,3-dihydrobenzofuran-4-yl)methyl)-8-(4-(1-(pyrrolidin-1-yl)ethyl)phenyl)-[1,2,4]triazolo[4,3-c]pyrimidin-5-amine] are 43.5 nM and 64 nM.
Turning to `Fc1ccncc1-c1cnc(NCc2c(F)ccc3c2CCO3)n2cnnc12` [Example 47, N-((5-fluoro-2,3-dihydrobenzofuran-4-yl)methyl)-8-(4-fluoropyridin-3-yl)-[1,2,4]triazolo[4,3-c]pyrimidin-5-amine], the IC50 was 5.2 nM in assay [1] and 4.9 nM in assay [2].
Regarding `Nc1ccc(-c2cnc(NCc3cccc4c3CCO4)n3cnnc23)cn1` [Example 48, 8-(6-aminopyridin-3-yl)-N-((2,3-dihydrobenzofuran-4-yl)methyl)-[1,2,4]triazolo[4,3-c]pyrimidin-5-amine], the IC50 turned out to be 12.9 nM in assay [1] and 30.2 nM in assay [2].
On the same counts, the results for `Cc1cc(-c2cnc(NCc3cccc4c3CCO4)n3cnnc23)ccc1C(=O)N(C)C` [Example 49, 4-(5-(((2,3-dihydrobenzofuran-4-yl)methyl)amino)-[1,2,4]triazolo[4,3-c]pyrimidin-8-yl)-N,N,2-trimethylbenzamide] are 12.5 nM and 12.8 nM.
Consider `Clc1ccncc1-c1cnc(NCc2cccc3c2CCO3)n2cnnc12` [Example 50, 8-(4-chloropyridin-3-yl)-N-((2,3-dihydrobenzofuran-4-yl)methyl)-[1,2,4]triazolo[4,3-c]pyrimidin-5-amine], for which the IC50 in assay [1] is 19.1 nM; in assay [2] it was 41.2 nM.
For the compound `c1cc(CNc2ncc(-c3cncnc3)c3nncn23)c2c(c1)OCC2` [Example 51, N-((2,3-dihydrobenzofuran-4-yl)methyl)-8-(pyrimidin-5-yl)-[1,2,4]triazolo[4,3-c]pyrimidin-5-amine], the half-inhibitory concentration (IC50) in assay [1] amounted to 136 nM; in assay [2], 346 nM.
In the case of `Cc1ccc(-c2cnc(NCc3cccc4c3CCO4)n3cnnc23)cn1` [Example 52, N-((2,3-dihydrobenzofuran-4-yl)methyl)-8-(6-methylpyridin-3-yl)-[1,2,4]triazolo[4,3-c]pyrimidin-5-amine], the IC50 stood at 70.9 nM in assay [1] and 47 nM in assay [2].
As for `CN(C)CCc1ccc(-c2cnc(NCc3cccc4c3CCO4)n3cnnc23)cn1` [Example 53, N-((2,3-dihydrobenzofuran-4-yl)methyl)-8-(6-(2-(dimethylamino)ethyl)pyridin-3-yl)-[1,2,4]triazolo[4,3-c]pyrimidin-5-amine], the values for the IC50 in assay [1] and in assay [2] were 12.4 nM and 28.7 nM, respectively.
Regarding `COc1ncc(-c2cnc(NCc3cccc4c3CCO4)n3cnnc23)cn1` [Example 54, N-((2,3-dihydrobenzofuran-4-yl)methyl)-8-(2-methoxypyrimidin-5-yl)-[1,2,4]triazolo[4,3-c]pyrimidin-5-amine], the figures for the IC50 in assay [1] and in assay [2] were 29.1 nM and 54.6 nM, respectively.
Consider `CN(C)C(=O)c1ccc(-c2cnc(NCc3c(F)ccc4c3CCO4)n3cnnc23)cc1` [Example 55, 4-(5-(((5-fluoro-2,3-dihydrobenzofuran-4-yl)methyl)amino)-[1,2,4]triazolo[4,3-c]pyrimidin-8-yl)-N,N-dimethylbenzamide], for which the values for the IC50 in assay [1] and in assay [2] were 21.1 nM and 31.8 nM, respectively.
The corresponding values for `CS(=O)(=O)c1ccc(-c2cnc(NCc3c(F)ccc4c3CCO4)n3cnnc23)cn1` [Example 56, N-((5-fluoro-2,3-dihydrobenzofuran-4-yl)methyl)-8-(6-(methylsulfonyl)pyridin-3-yl)-[1,2,4]triazolo[4,3-c]pyrimidin-5-amine] are 19.6 nM and 30.9 nM.
Consider `Cc1ccc(-c2cnc(NCc3c(F)ccc4c3CCO4)n3cnnc23)cn1` [Example 57, N-((5-fluoro-2,3-dihydrobenzofuran-4-yl)methyl)-8-(6-methylpyridin-3-yl)-[1,2,4]triazolo[4,3-c]pyrimidin-5-amine], for which the IC50 in assay [1] is 8.4 nM; in assay [2], 18.6 nM.
Regarding `Nc1cc(F)c(-c2cnc(NCc3cccc4c3CCO4)n3cnnc23)cn1` [Example 58, 8-(6-amino-4-fluoropyridin-3-yl)-N-((2,3-dihydrobenzofuran-4-yl)methyl)-[1,2,4]triazolo[4,3-c]pyrimidin-5-amine], the IC50 in assay [1] was determined as 6.3 nM; in assay [2] it was 13 nM.
Take `Cc1noc(C)c1-c1cnc(NCc2cccc3c2CCO3)n2cnnc12` [Example 59, N-((2,3-dihydrobenzofuran-4-yl)methyl)-8-(3,5-dimethylisoxazol-4-yl)-[1,2,4]triazolo[4,3-c]pyrimidin-5-amine]: the IC50 in assay [1] worked out at 31.8 nM; in assay [2], 38.7 nM.
